Patent US11091497B2, “Pyrano[3,4-b]pyrazine kappa opioid receptor ligands for treating addiction, pruritus, pain, and inflammation” (The Rockefeller University, priority 2017, dated 2021)
Read-outs that look alike come from different tables or passages of the source.

Legend:
[1] = biological target: T1, kappa opioid receptor (PathHunter U2OS hOPRK1 β-arrestin cell line) (Homo sapiens, UniProt P41145); test: β-arrestin coupling (PathHunter Detection Kit); format: cell-based; settings: for β-arrestin coupling % efficacy: maximal, normalized to U69,593; for Emax at 10 µM: U2OS
T1 construct: host or cells: U2OS (PathHunter U2OS hOPRK1 β-arrestin cell line)
Experimental: (§1) Membranes from cells stably expressing kappa, mu or delta opioid receptor constructs (PathHunter U2OS hOPRK1, CHO-K1 rOPRM1 and CHO-K1 OPRD1 β-arrestin cell line, DiscoverX, Fremont, Calif., USA) were used. Cells were scraped from tissue culture plates, homogenized with a tissue tearor homogenizer in membrane buffer (10 mM Tris, 100 mM NaCl, and 1 mM EDTA; pH 7.4), and centrifuged at 20,000 g for 30 minutes at 4° C. and frozen at −80° C. until use. Prior to use, the pellets were resuspended in binding buffer (50 mm Tris, 100 mm NaCl, pH 7.4), homogenized with a dounce homogenizer and […] incubated with 1.0 nM of the appropriate tritiated ligand ([^3H]U69,593, [^3H]DAMGO or [^3H]DPDPE for kappa, mu or delta binding, respectively) and the appropriate concentration of compound for 60 minutes at 30° C. Membranes with bound tritiated ligand were collected on Whatman GF/B filter paper (Brandel, Gaithersburg, Md., USA) utilizing a Brandel harvester. Bound tritiated ligand was quantified using a TriCarb-2900TR scintillation counter (Packard, Downers Grove, Ill., USA) following addition of 4 ml ReadySafe scintillation fluid (Beckman Coulter, Indianapolis, Ind., USA). Compiled data for each compound was normalized to the maximal binding in the absence of compound, with non-specific binding subtracted. Curve fitting was done in Microcal Origin 17.0 software using logistic sigmoidal fit, to determine IC50. GTPgammaS Membranes from U2OS cells stably expressing human kappa opioid receptors were used. Cells were scraped from tissue culture plates, homogenized with a tissue tearor homogenizer in membrane buffer (10 mM Tris, 100 mM NaCl, and 1 mM EDTA; pH 7.4), and centrifuged at 20,000 g for 30 minutes at 4° C. and frozen at −80° C. until use. Prior to use, the pellets were resuspended in assay buffer (50 mm Tris, 100 mm NaCl, 5 mM MgCl2, and 1 mM EDTA; pH 7.4) and homogenized with a dounce homogenizer and 50 μg incubated with 0.1 nM [35 S]GTPγS, 10 nM GDP, and the appropriate concentration of agonist for 20 minutes at 30° C. To test inhibition, all samples were incubated with 100 nM U69,593 as well as the appropriate concentration of compound. Membranes with bound [35 S]GTPγS were collected on Whatman GF/B filter paper (Brandel, Gaithersburg, Md., USA) utilizing a Brandel harvester. Bound [35 S]GTPγS was quantified using a TriCarb-2900TR scintillation counter (Packard, Downers Grove, Ill., USA) following addition of 4 mL ReadySafe scintillation fluid (Beckman Coulter, Indianapolis, Ind., USA). […] NA indicates not applicable. For each compound, curve fitting was done in Microcal Origin 17.0 software using logistic sigmoidal fit, to determine EC50 and maximal percent stimulation, which in turn was normalized to the maximal percent stimulation of the test full agonist compound U69,593 to determine % efficacy. β2-Arrestin Experiments were conducted using the PathHunter Detection Kit obtained from DiscoverX. Cells stably expressing kappa, mu or delta opioid receptor constructs (PathHunter U2OS hOPRK1, CHO-K1 rOPRM1 and CHO-K1 OPRD1 β-arrestin cell line, DiscoverX, Fremont, Calif., USA) were plated in 96- or 384-well plates. Cells were stimulated with the compounds for 90 minutes at 37° C. To test inhibition, all samples were incubated with 100 nM U69,593 as well as the appropriate concentration of compound. Cells were then incubated for 60 minutes in the presence of galoctosidase substrate, yielding chemiluminescent product. Chemiluminescence was measured using a Synergy Neo microplate reader (BioTek, Winooski, Vt., USA). Antagonism assays were done in the same manner, in the presence of 300 nM U69,593, 1 μM DAMGO or 1 μM DPDPE for KOP-R, MOP-R or DOP-R assays, respectively. […] NA indicates not applicable. […]

[2] = biological target: T2, human kappa opioid receptors (Homo sapiens, UniProt P41145); test: [35S]GTPγS stimulation, membranes from U2OS cells; format: biochemical; settings: for Emax: read-out: GTPγS stimulation % efficacy
T2 construct: expressed in transfected cells; host or cells: U2OS
Experimental: Membranes from cells stably expressing kappa, mu or delta opioid receptor constructs (PathHunter U2OS hOPRK1, CHO-K1 rOPRM1 and CHO-K1 OPRD1 β-arrestin cell line, DiscoverX, Fremont, Calif., USA) were used. Cells were scraped from tissue culture plates, homogenized with a tissue tearor homogenizer in membrane buffer (10 mM Tris, 100 mM NaCl, and 1 mM EDTA; pH 7.4), and centrifuged at 20,000 g for 30 minutes at 4° C. and frozen at −80° C. until use. Prior to use, the pellets were resuspended in binding buffer (50 mm Tris, 100 mm NaCl, pH 7.4), homogenized with a dounce homogenizer and […] incubated with 1.0 nM of the appropriate tritiated ligand ([^3H]U69,593, [^3H]DAMGO or [^3H]DPDPE for kappa, mu or delta binding, respectively) and the appropriate concentration of compound for 60 minutes at 30° C. Membranes with bound tritiated ligand were collected on Whatman GF/B filter paper (Brandel, Gaithersburg, Md., USA) utilizing a Brandel harvester. Bound tritiated ligand was quantified using a TriCarb-2900TR scintillation counter (Packard, Downers Grove, Ill., USA) following addition of 4 ml ReadySafe scintillation fluid (Beckman Coulter, Indianapolis, Ind., USA). Compiled data for each compound was normalized to the maximal binding in the absence of compound, with non-specific binding subtracted. Curve fitting was done in Microcal Origin 17.0 software using logistic sigmoidal fit, to determine IC50. GTPgammaS Membranes from U2OS cells stably expressing human kappa opioid receptors were used. Cells were scraped from tissue culture plates, homogenized with a tissue tearor homogenizer in membrane buffer (10 mM Tris, 100 mM NaCl, and 1 mM EDTA; pH 7.4), and centrifuged at 20,000 g for 30 minutes at 4° C. and frozen at −80° C. until use. Prior to use, the pellets were resuspended in assay buffer (50 mm Tris, 100 mm NaCl, 5 mM MgCl2, and 1 mM EDTA; pH 7.4) and homogenized with a dounce homogenizer and 50 μg incubated with 0.1 nM [35 S]GTPγS, 10 nM GDP, and the appropriate concentration of agonist for 20 minutes at 30° C. To test inhibition, all samples were incubated with 100 nM U69,593 as well as the appropriate concentration of compound. Membranes with bound [35 S]GTPγS were collected on Whatman GF/B filter paper (Brandel, Gaithersburg, Md., USA) utilizing a Brandel harvester. Bound [35 S]GTPγS was quantified using a TriCarb-2900TR scintillation counter (Packard, Downers Grove, Ill., USA) following addition of 4 mL ReadySafe scintillation fluid (Beckman Coulter, Indianapolis, Ind., USA). […] For each compound, curve fitting was done in Microcal Origin 17.0 software using logistic sigmoidal fit, to determine EC50 and maximal percent stimulation, which in turn was normalized to the maximal percent stimulation of the test full agonist compound U69,593 to determine % efficacy. β2-Arrestin Experiments were conducted using the PathHunter Detection Kit obtained from DiscoverX. Cells stably expressing kappa, mu or delta opioid receptor constructs (PathHunter U2OS hOPRK1, CHO-K1 rOPRM1 and CHO-K1 OPRD1 β-arrestin cell line, DiscoverX, Fremont, Calif., USA) were plated in 96- or 384-well plates. Cells were stimulated with the compounds for 90 minutes at 37° C. To test inhibition, all samples were incubated with 100 nM U69,593 as well as the appropriate concentration of compound. Cells were then incubated for 60 minutes in the presence of galoctosidase substrate, yielding chemiluminescent product. Chemiluminescence was measured using a Synergy Neo microplate reader (BioTek, Winooski, Vt., USA). Antagonism assays were done in the same manner, in the presence of 300 nM U69,593, 1 μM DAMGO or 1 μM DPDPE for KOP-R, MOP-R or DOP-R assays, respectively.

[3] = biological target: T3, kappa opioid receptor (PathHunter U2OS hOPRK1 membranes) (Homo sapiens, UniProt P41145); test: Tritiated U69,593 binding for KOP-R membranes
T3 construct: host or cells: U2OS (PathHunter U2OS hOPRK1 β-arrestin cell line)
Experimental: Tritiated U69,593 binding for KOP-R membranes; tritiated DAMGO binding for MOP-R membranes; and tritiated DPDPE binding for DOP-R membranes:
as §1

[4] = No stim = no stimulation at highest dose tested, 10,000 nM
[5] = 1.0 nM [3H]U69,593, 60 minutes at 30° C., read-out: Binding IC50
[6] = read-out: β-arrestin coupling % efficacy at 10 μM
[7] = read-out: β-arrestin coupling % efficacy

T3 sequence (P41145 whole entry): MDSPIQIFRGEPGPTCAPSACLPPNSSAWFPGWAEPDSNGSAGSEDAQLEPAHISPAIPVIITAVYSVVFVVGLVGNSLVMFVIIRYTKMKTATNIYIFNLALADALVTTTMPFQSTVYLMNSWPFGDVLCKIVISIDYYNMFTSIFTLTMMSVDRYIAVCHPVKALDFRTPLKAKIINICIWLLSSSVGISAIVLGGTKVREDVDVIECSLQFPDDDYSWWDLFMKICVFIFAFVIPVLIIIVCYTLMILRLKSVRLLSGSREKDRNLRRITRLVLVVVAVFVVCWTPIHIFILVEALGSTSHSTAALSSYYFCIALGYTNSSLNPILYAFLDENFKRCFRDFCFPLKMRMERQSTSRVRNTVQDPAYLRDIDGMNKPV
T1 sequence (P41145 whole entry): as above
T2 sequence (P41145 whole entry): as above

Structure (SMILES) | β-arrestin coupling % efficacy [1, 4] | EC50 [2] | Emax [2] | IC50 [3, 5] | Emax at 10 µM [1, 6] | EC50 ([2]; 20 minutes at 30° C., read-out: GTPγS stimulation EC50) | IC50 [3] | β-arrestin coupling EC50 ([1]; 90 minutes at 37° C., No stim = no stimulation at highest dose tested, 10,000 nM) | EC50 [1] | Emax at 10 µM [1, 7]
O=C(Cc1cccc(Cl)c1Cl)N1CCN[C@@H]2COC[C@H](N3CCCC3)[C@H]21 (racemic) [Example 5A48] | No stim | 21800 nM | 181% | 1040 nM |  |  |  |  |  | 
O=C(Cc1ccc(Cl)c(F)c1)N1CCN[C@@H]2COC[C@H](N3CCCC3)[C@H]21 (racemic) [Example 5A65] |  |  | 121% |  | 20% | 136 nM | 68 nM |  |  | 
O=C(Cc1ccc(Cl)c(Cl)c1)N1CCN(Cc2ccccc2)[C@@H]2COC[C@H](N3CCCC3)[C@H]21 (racemic) [Example 5A53, 1-[4-benzyl-8-pyrrolidin-1-yl-3,4a,5,7,8,8a-hexahydro-2H-pyrano(3,4-b)pyrazin-1-yl]-2-(3,4-dichlorophenyl)ethanone] |  | 12 nM | 82% |  | 80% |  | 40 nM |  |  | 
Cc1ccc(CC(=O)N2CCN[C@@H]3COC[C@H](N4CCCC4)[C@H]32)cc1C (racemic) [Example 5A40] | No stim | 1700 nM | 111% | 719 nM |  |  |  | No stim |  | 
O=C(Cc1ccc(Cl)c(Cl)c1)N1CCN(CC2CC2)[C@@H]2COC[C@H](N3CCCC3)[C@H]21 (racemic) [Example 5A70] |  | 19 nM | 90% |  | 50% |  | 71 nM |  |  | 
CN(CC1CC1)[C@H]1COC[C@H]2NCCN(C(=O)Cc3ccc(Cl)c(Cl)c3)[C@@H]21 (racemic) [Example 5A50] | No stim | 93 nM | 79% |  |  |  | 297 nM |  |  | 
O=C(Cc1ccc(Cl)c(Cl)c1)N1CCN(CC2CCC2)[C@@H]2COC[C@H](N3CCCC3)[C@H]21 (single isomer, unassigned) [Example 5A55A] | No stim | 30 nM | 84% |  |  |  | 94 nM |  |  | 
O=C(Cc1ccc(F)c(Cl)c1)N1CCN[C@@H]2COC[C@H](N3CCCC3)[C@H]21 (racemic) [Example 5A25] |  | 571 nM | 93% | 249 nM |  |  |  |  | 13600 nM | 29%
O=C(Cc1ccc(Cl)c(Cl)c1)N1CCN(S(=O)(=O)C2CC2)[C@@H]2COC[C@H](N3CCCC3)[C@H]21 (racemic) [Example 5A52] |  | 3 nM | 101% |  |  |  | 5.1 nM |  | 3300 nM | 79%
O=C(Cc1ccc(C(F)(F)F)cc1)N1CCN[C@@H]2COC[C@H](N3CCCC3)[C@H]21 (racemic) [Example 5A49] |  | 109 nM | 69% | 102 nM |  |  |  |  | 11000 nM | 36%
CS(=O)(=O)N1CCN(C(=O)Cc2ccc(Cl)c(Cl)c2)[C@H]2[C@H]1COC[C@@H]2N1CCCC1 (racemic) [Example 5A44] |  | 6.7 nM | 88% |  |  |  | 19 nM |  | 6200 nM | 55%
O=C(Cc1ccc(Cl)c(Cl)c1)N1CCN(Cc2ccccc2)[C@H]2COC[C@@H](N3CCCC3)[C@@H]21 (single isomer, unassigned) [Example 5A53B] |  | 4.8 nM | 58% |  | 80% |  | 44 nM |  |  | 
CS(=O)(=O)N1CCN(C(=O)Cc2ccc(Cl)c(Cl)c2)[C@H]2[C@H]1COC[C@@H]2N1CCCC1 (single isomer, unassigned) [Example 5A44A] |  | 3.4 nM | 119% |  | 80% |  | 5.4 nM |  |  | 
CS(=O)(=O)N1CCN(C(=O)Cc2ccc(Cl)c(Cl)c2)[C@H]2[C@H](N3CCCC3)COC[C@@H]21 (single isomer, unassigned) [Example 5A44B] |  | 4.6 nM | 105% |  | 70% |  | 18 nM |  |  | 
O=C(Cc1ccc(Cl)c(Cl)c1)N1CCN(Cc2ccccc2)[C@@H]2COC[C@H](N3CCCC3)[C@H]21 (single isomer, unassigned) [Example 5A53A] |  | 18 nM | 80% |  | 80% |  | 108 nM |  |  | 
